According to patent US9708314B2, “Heterocyclic amide compound” (NISSAN CHEMICAL INDUSTRIES, LTD., priority 2013, dated 2017):

Experiments:
Format in all cases: in vivo
[1] = tested on: Scirpus juncoides; test: Test Example 2: herbicidal activity, application during weed generation in submerged conditions; conditions: Eighteenth Table; application herbicide amount 320 g/ha
How it was run: (§1)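 Seeds were sown together in alluvial soil kept under 4 cm of water and grown at 25 °C to 30 °C. Once plants reached the one- to two-leaf stage, the diluted emulsion was applied to the water surface at a predetermined g/ha amount, and effects were rated 0–5 after three weeks.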

[2] = tested on: Monochoria vaginalis; test: as above; conditions: Eighteenth Table; application herbicide amount 320 g/ha
How it was run: as §1

[3] = tested on: Echinochloa oryzacola Vasing.; test: as above; conditions: Eighteenth Table; application herbicide amount 320 g/ha
How it was run: as §1

[4] = tested on: Chenopodium album; test: Test Example 4: herbicidal effect by application to foliage (diluvial soil, plastic box); conditions: for O (Chenopodium album) herbicidal effect: application to foliage, application herbicide amount 320 g/ha
How it was run: (§2)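 Greenhouse plants (25° C. to 30° C., 14 d, diluvial soil) receive a foliar spray of water-diluted emulsifiable formulation at defined g/ha. Grading after 3 weeks uses a six-step herbicidal-ratio scale, with 4 covering 70% to <90% and 1 covering 5% to <20%.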

[5] = tested on: Avena fatua; test: as above; conditions: for I (Avena fatua) herbicidal effect: application to foliage, application herbicide amount 320 g/ha
How it was run: as §2

[6] = tested on: Setaria viridis; test: as above; conditions: for G (Setaria viridis) herbicidal effect: application to foliage, application herbicide amount 320 g/ha
How it was run: as §2

[7] = tested on: Digitaria ciliaris; test: as above; conditions: for F (Digitaria ciliaris) herbicidal effect: application to foliage, application herbicide amount 320 g/ha
How it was run: as §2

[8] = tested on: Alopecurus myosuroides; test: as above; conditions: for J (Alopecurus myosuroides) herbicidal effect: application to foliage, application herbicide amount 320 g/ha
How it was run: as §2

[9] = tested on: Veronica persica; test: as above; conditions: for R (Veronica persica) herbicidal effect: application to foliage, application herbicide amount 320 g/ha
How it was run: as §2

[10] = tested on: Galium spurium; test: as above; conditions: for Q (Galium spurium) herbicidal effect: application to foliage, application herbicide amount 320 g/ha
How it was run: as §2

[11] = tested on: Apera spica-venti.; test: as above; conditions: for L (Apera spica-venti.) herbicidal effect: application to foliage, application herbicide amount 320 g/ha
How it was run: as §2

[12] = tested on: Lolium multiflorum Lam.; test: as above; conditions: for K (Lolium multiflorum Lam.) herbicidal effect: application to foliage, application herbicide amount 320 g/ha
How it was run: as §2

[13] = tested on: Abutilon theophrasti; test: as above; conditions: for M (Abutilon theophrasti) herbicidal effect: application to foliage, application herbicide amount 320 g/ha
How it was run: as §2

[14] = tested on: Echinochloa crus-galli var. crus-galli; test: as above; conditions: for H (Echinochloa crus-galli var. crus-galli) herbicidal effect: application to foliage, application herbicide amount 320 g/ha
How it was run: as §2

[15] = tested on: Glycine max; test: Test Example 4: effect on crop by application to foliage (diluvial soil, plastic box); conditions: for c (Glycine max) effect on crop: application to foliage, application herbicide amount 320 g/ha
How it was run: as §2

[16] = tested on: directly sowed Oryza sativa; test: as above; conditions: for d (directly sowed Oryza sativa) effect on crop: application to foliage, application herbicide amount 320 g/ha
How it was run: as §2

[17] = tested on: Brassica campestris L.; test: as above; conditions: for g (Brassica campestris L.) effect on crop: application to foliage, application herbicide amount 320 g/ha
How it was run: as §2

[18] = tested on: Triticum aestivum; test: as above; conditions: for e (Triticum aestivum) effect on crop: application to foliage, application herbicide amount 320 g/ha
How it was run: as §2

[19] = tested on: Beta vulgaris ssp. vulgaris; test: as above; conditions: for f (Beta vulgaris ssp. vulgaris) effect on crop: application to foliage, application herbicide amount 320 g/ha
How it was run: as §2

[20] = tested on: Zea mays; test: as above; conditions: for b (Zea mays) effect on crop: application to foliage, application herbicide amount 320 g/ha
How it was run: as §2

[21] = Application herbicide amount 320 g/ha
[22] = Application herbicide amount 320 g/ha, effect on crop

Compound	B (Scirpus juncoides) herbicidal ratio grade [1]	C (Monochoria vaginalis) herbicidal ratio grade [2]	A (Echinochloa oryzicola Vasing.) herbicidal ratio grade [3]	O (Chenopodium album) herbicidal effect [4]	I (Avena fatua) herbicidal effect [5]	G (Setaria viridis) herbicidal effect [6]	F (Digitaria ciliaris) herbicidal effect [7]	J (Alopecurus myosuroides) herbicidal effect [8]	R (Veronica persica) herbicidal effect [9]	Q (Galium spurium) herbicidal effect [10]	L (Apera spica-venti.) herbicidal effect [11]	K (Lolium multiflorum Lam.) herbicidal effect [12]	M (Abutilon theophrasti) herbicidal effect [13]	H (Echinochloa crus-galli var. crus-galli) herbicidal effect [14]	c (Glycine max) effect on crop [15]	d (directly sowed Oryza sativa) effect on crop [16]	g (Brassica campestris L.) effect on crop [17]	e (Triticum aestivum) effect on crop [18]	f (Beta vulgaris ssp. vulgaris) effect on crop [19]	b (Zea mays) effect on crop [20]	other results
COCc1nnc2c(C(=O)Nc3nnc(C)o3)ccc(C(F)(F)F)n12 [1-015]	2 (Herbicidal ratio of 20% or more and less than 40%)	1 (Herbicidal ratio of 5% or more and less than 20%)	4 (Herbicidal ratio of 70% or more and less than 90%)	5 (Herbicidal ratio of 90% or more (almost completely withered))	3 (Herbicidal ratio of 40% or more and less than 70%)	3 (Herbicidal ratio of 40% or more and less than 70%)	4 (Herbicidal ratio of 70% or more and less than 90%)	1 (Herbicidal ratio of 5% or more and less than 20%)	5 (Herbicidal ratio of 90% or more (almost completely withered))	3 (Herbicidal ratio of 40% or more and less than 70%)	3 (Herbicidal ratio of 40% or more and less than 70%)	1 (Herbicidal ratio of 5% or more and less than 20%)	5 (Herbicidal ratio of 90% or more (almost completely withered))	5 (Herbicidal ratio of 90% or more (almost completely withered))	1 (Herbicidal ratio of 5% or more and less than 20%)	4 (Herbicidal ratio of 70% or more and less than 90%)	4 (Herbicidal ratio of 70% or more and less than 90%)	2 (Herbicidal ratio of 20% or more and less than 40%)	5 (Herbicidal ratio of 90% or more (almost completely withered))	0 (Herbicidal ratio of 5% or less (almost no effect))	–
Cc1nnc(NC(=O)c2ccc(C(F)(F)F)n3c(-c4cccc(Cl)n4)nnc23)o1 [1-055]	3 (Herbicidal ratio of 40% or more and less than 70%)	3 (Herbicidal ratio of 40% or more and less than 70%)	3 (Herbicidal ratio of 40% or more and less than 70%)	–	–	–	–	–	–	–	–	–	–	–	–	–	–	–	–	–	O [4, 21]: 5 (Herbicidal ratio of 90% or more (almost completely withered)); I [5, 21]: 1 (Herbicidal ratio of 5% or more and less than 20%); G [6, 21]: 3 (Herbicidal ratio of 40% or more and less than 70%); F [7, 21]: 4 (Herbicidal ratio of 70% or more and less than 90%); J [8, 21]: 3 (Herbicidal ratio of 40% or more and less than 70%); R [9, 21]: 4 (Herbicidal ratio of 70% or more and less than 90%); Q [10, 21]: 2 (Herbicidal ratio of 20% or more and less than 40%); L [11, 21]: 3 (Herbicidal ratio of 40% or more and less than 70%); K [12, 21]: 2 (Herbicidal ratio of 20% or more and less than 40%); M [13, 21]: 5 (Herbicidal ratio of 90% or more (almost completely withered)); H [14, 21]: 4 (Herbicidal ratio of 70% or more and less than 90%); c [15, 22]: 0 (Herbicidal ratio of 5% or less (almost no effect)); d [16, 22]: 3 (Herbicidal ratio of 40% or more and less than 70%); g [17, 22]: 4 (Herbicidal ratio of 70% or more and less than 90%); e [18, 22]: 1 (Herbicidal ratio of 5% or more and less than 20%); f [19, 22]: 5 (Herbicidal ratio of 90% or more (almost completely withered)); b [20, 22]: 0 (Herbicidal ratio of 5% or less (almost no effect))
CC(C)c1nnc2c(C(=O)Nc3nnco3)ccc(C(F)(F)F)n12 [1-050]	4 (Herbicidal ratio of 70% or more and less than 90%)	3 (Herbicidal ratio of 40% or more and less than 70%)	5 (Herbicidal ratio of 90% or more (almost completely withered))	5 (Herbicidal ratio of 90% or more (almost completely withered))	3 (Herbicidal ratio of 40% or more and less than 70%)	4 (Herbicidal ratio of 70% or more and less than 90%)	5 (Herbicidal ratio of 90% or more (almost completely withered))	2 (Herbicidal ratio of 20% or more and less than 40%)	5 (Herbicidal ratio of 90% or more (almost completely withered))	2 (Herbicidal ratio of 20% or more and less than 40%)	3 (Herbicidal ratio of 40% or more and less than 70%)	3 (Herbicidal ratio of 40% or more and less than 70%)	5 (Herbicidal ratio of 90% or more (almost completely withered))	5 (Herbicidal ratio of 90% or more (almost completely withered))	3 (Herbicidal ratio of 40% or more and less than 70%)	4 (Herbicidal ratio of 70% or more and less than 90%)	5 (Herbicidal ratio of 90% or more (almost completely withered))	3 (Herbicidal ratio of 40% or more and less than 70%)	5 (Herbicidal ratio of 90% or more (almost completely withered))	1 (Herbicidal ratio of 5% or more and less than 20%)	–
CC[S+]([O-])c1nnc2c(C(=O)Nc3nnc(C)o3)ccc(C(F)(F)F)n12 (centres unmarked) [1-034]	3 (Herbicidal ratio of 40% or more and less than 70%)	4 (Herbicidal ratio of 70% or more and less than 90%)	4 (Herbicidal ratio of 70% or more and less than 90%)	5 (Herbicidal ratio of 90% or more (almost completely withered))	3 (Herbicidal ratio of 40% or more and less than 70%)	5 (Herbicidal ratio of 90% or more (almost completely withered))	5 (Herbicidal ratio of 90% or more (almost completely withered))	1 (Herbicidal ratio of 5% or more and less than 20%)	5 (Herbicidal ratio of 90% or more (almost completely withered))	3 (Herbicidal ratio of 40% or more and less than 70%)	3 (Herbicidal ratio of 40% or more and less than 70%)	3 (Herbicidal ratio of 40% or more and less than 70%)	5 (Herbicidal ratio of 90% or more (almost completely withered))	5 (Herbicidal ratio of 90% or more (almost completely withered))	1 (Herbicidal ratio of 5% or more and less than 20%)	4 (Herbicidal ratio of 70% or more and less than 90%)	4 (Herbicidal ratio of 70% or more and less than 90%)	2 (Herbicidal ratio of 20% or more and less than 40%)	5 (Herbicidal ratio of 90% or more (almost completely withered))	5 (Herbicidal ratio of 90% or more (almost completely withered))	–
